Source: US9115151B2, “Substituted 2,10-dihydro-9-oxa-1,2,4A-triazaphenanthren-3-ones and uses thereof” (AbbVie Inc., priority 2012, dated 2015)
Where a name gives a salt, the structure may show the parent alone.

Tests used:
[1] = molecular target: T1, PKCθ (Homo sapiens, UniProt Q04759); assay: In vitro enzyme assay (time-resolved fluorescence kinase assay), PKCθ, 100 μM ATP; type: biochemical
T1 construct: His6; purchased Millipore; host or cells: baculovirus in Sf21 cells
Protocol: (§1) PKC kinase activity was assayed by time-resolved fluorescence in vitro kinase assay. Unless otherwise indicated, all reagents used for enzyme assays were obtained from Sigma. Specifically, 5 μL N- or C-terminal His6-tagged, recombinant, human PKC, expressed by baculovirus in Sf21 cells (Millipore) was mixed with 5 μL inhibitor (various concentrations, 5% final DMSO), 5 μL Bio-cdc peptide (Biotin-Ahx-[…], 2 μM final concentration, New England Peptide) and 5 μL of ATP (100 μM or 1000 μM final concentration) in 1× reaction buffer, 20 μL final volume.
(§2) Following a sixty minute incubation at room temperature, the reaction was quenched with 5 μL of 0.5 M EDTA pH 7.5.
(§3) Background counts from a minus enzyme control is subtracted from all data. Data (after background correction) are converted to percent activity by dividing by the signal obtained from PKC without drug sample.

[2] = molecular target: T2, PKCα (Homo sapiens, UniProt P17252); assay: In vitro enzyme assay (time-resolved fluorescence kinase assay), PKCα, 100 μM ATP; type: biochemical; conditions: 100 μM ATP; read-out: PKCα enzyme IC50
T2 construct: His6; purchased Millipore; host or cells: baculovirus in Sf21 cells
Protocol: as §1, §2, §3

[3] = tested on: CD3/CD28 induced IL-2 in human T-Blasts; assay: T-Blasts CD3/CD28 induced IL-2 assay; type: cell-based; conditions: read-out: CD3/CD28-stimulated IL2 in T-blasts EC50
Protocol: T-Blasts CD3/CD28 Induced IL-2 Assay
Human T-Blasts are generated using PHA following standard protocols. T-Blasts are freeze aliquoted and vials thawed as required. […] Seed 2×10^5/100 μL cell suspension per well in flat bottomed 96 well plate. Compound dilutions are prepared from 100% DMSO stocks. A total of 8 serial dilutions are made (1/3 in 100% DMSO). Compounds are diluted 1/50 in growth medium to prepare 4× stocks of each tested concentration. 50 μL from each 4× stock concentration is added to the 100 μL cell suspension and incubated for 30 minutes prior stimulus addition. A 4× stimulus stock is prepared using anti-CD3+anti-CD28 antibodies. Antibody mix is added to the cell/compounds suspension in 50 μL at 5 μg/mL final concentration. Compounds are tested in duplicates. Plates are transferred to 37° C./CO2 incubator for 24 hours. After incubation 130 μL of supernatant is collected for IL-2 determination while MTT toxicity analysis is performed on remaining cells/medium.

T1 sequence (Q04759 whole entry): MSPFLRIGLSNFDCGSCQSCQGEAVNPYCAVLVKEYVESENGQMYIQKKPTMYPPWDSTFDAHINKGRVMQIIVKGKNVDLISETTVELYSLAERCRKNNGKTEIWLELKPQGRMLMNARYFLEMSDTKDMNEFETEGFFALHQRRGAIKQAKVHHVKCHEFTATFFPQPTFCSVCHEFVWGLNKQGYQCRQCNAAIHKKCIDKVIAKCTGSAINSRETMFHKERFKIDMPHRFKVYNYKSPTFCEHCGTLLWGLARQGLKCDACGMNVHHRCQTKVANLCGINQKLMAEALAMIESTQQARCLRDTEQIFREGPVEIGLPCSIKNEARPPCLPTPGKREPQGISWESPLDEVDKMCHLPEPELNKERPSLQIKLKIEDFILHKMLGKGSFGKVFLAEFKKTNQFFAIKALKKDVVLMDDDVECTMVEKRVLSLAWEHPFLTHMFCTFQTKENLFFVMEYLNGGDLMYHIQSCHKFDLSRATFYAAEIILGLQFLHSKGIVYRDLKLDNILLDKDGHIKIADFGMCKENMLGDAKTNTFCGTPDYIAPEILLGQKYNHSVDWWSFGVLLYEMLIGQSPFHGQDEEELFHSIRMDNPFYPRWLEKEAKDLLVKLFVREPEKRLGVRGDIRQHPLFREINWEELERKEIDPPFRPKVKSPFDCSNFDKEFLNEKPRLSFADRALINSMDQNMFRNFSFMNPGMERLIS

SMILES	IC50 [1]	IC50 [2]	EC50 [3]
CC(C)c1cc2c(cc1C1CCN(C)CC1)N1C(=NNC(=O)[C@H]1C)CO2 [Example 219]	< 250 nM	1000 to 10000 nM	< 250 nM
C[C@@H]1C(=O)NN=C2COc3cc([C@H](C)C(F)(F)F)c(NC4CNC4)cc3N21 [Example 62]	< 250 nM	1000 to 10000 nM	250 to 1000 nM
CC1C(=O)NN=C2COc3cc(C(C)C(F)(F)F)c(NC4CNC4)cc3N21 (stereo not drawn) [Example 112, 9-(Azetidin-3-ylamino)-1-methyl-8-(1,1,1-trifluoropropan-2-yl)-3,5-dihydrobenzo[5,6][1,4]oxazino[3,4-c][1,2,4]triazin-2(1H)-one trifluoroacetic acid salt]	1000 to 10000 nM	1000 to 10000 nM	1000 to 10000 nM
C[C@@H]1C(=O)NN=C2COc3cc([C@@H](C)C(F)(F)F)c(NC4CNC4)cc3N21 [Example 61]	< 250 nM	1000 to 10000 nM	250 to 1000 nM
CC1C(=O)NN=C2COc3cc(-c4ccc5ncsc5c4)c(NC4CNC4)cc3N21 (racemic) [Example 38]	< 250 nM	1000 to 10000 nM	250 to 1000 nM
C[C@@H]1C(=O)NN=C2COc3ccc([C@H](C)C4CNC4)cc3N21 [Example 111]	< 250 nM	1000 to 10000 nM	250 to 1000 nM
C[C@H]1C(=O)NN=C2COc3cc(C4CC4)c(NC4CNC4)cc3N21 (single isomer, unassigned) [Example 64-2, trifluoroacetic acid]	250 to 1000 nM	1000 to 10000 nM	1000 to 10000 nM
C[C@@H]1C(=O)NN=C2COc3cc4ccn(C5(C)CNC5)c4cc3N21 [Example 148, (R)-1-Methyl-10-(3-methyl-azetidin-3-yl)-3,5-dihydro-10H-6-oxa-3,4,10,11b-tetraaza-cyclopenta[b]phenanthren-2-one hydrochloride]	< 250 nM	250 to 1000 nM	< 250 nM
CCC1(n2ccc3cc4c(cc32)N2C(=NNC(=O)[C@H]2C)CO4)CNC1 [Example 150]	< 250 nM	1000 to 10000 nM	250 to 1000 nM
CC(C)c1cc2c(cc1OC1(C)CNC1)N1C(=NNC(=O)[C@H]1C)CO2 (single isomer, unassigned) [Example 121-2, trifluoroacetic acid]	250 to 1000 nM	1000 to 10000 nM	1000 to 10000 nM
CC1C(=O)NN=C2COc3cc(C4CC4)c(NC4CNC4)cc3N21 (racemic) [Example 49]	< 250 nM	1000 to 10000 nM	< 250 nM
Cc1cc2c(cc1NC1CN(C)C1)N1C(=NNC(=O)C1C)CO2 (stereo not drawn) [Example 125, 1,8-Dimethyl-9-((1-methylazetidin-3-yl)amino)-3,5-dihydrobenzo[5,6][1,4]oxazino[3,4-c][1,2,4]triazin-2(1H)-one trifluoroacetic acid]	< 250 nM	1000 to 10000 nM	250 to 1000 nM
CC1C(=O)NN=C2COc3cc(C(F)(F)F)c(OC4(C)CNC4)cc3N21 (stereo not drawn) [Example 107, 4-Methyl-6-(3-methyl-azetidin-3-yloxy)-7-trifluoromethyl-2,10-dihydro-9-oxa-1,2,4a-triaza-phenanthren-3-one trifluoroacetic acid]	< 250 nM	< 250 nM	< 250 nM
CC1C(=O)NN=C2COc3cc(C4CC4)c(OC4CNC4)cc3N21 (stereo not drawn) [Example 65, 6-(Azetidin-3-yloxy)-7-cyclopropyl-4-methyl-2,10-dihydro-9-oxa-1,2,4a-triaza-phenanthren-3-one trifluoroacetic acid]	< 250 nM	1000 to 10000 nM	< 250 nM
[2H]c1cn(C2(C)CNC2)c2cc3c(cc12)OCC1=NNC(=O)C(C)N13 (stereo not drawn) [Example 149, 8-Deuterated-1-methyl-10-(3-methyl-azetidin-3-yl)-3,5-dihydro-10H-6-oxa-3,4,10,11b-tetraaza-cyclopenta[b]phenanthren-2-one hydrochloride]	< 250 nM	1000 to 10000 nM	< 250 nM
CC(C)Cc1cc2c(cc1NC1CNC1)N1C(=NNC(=O)C1C)CO2 (stereo not drawn) [Example 58]	< 250 nM	1000 to 10000 nM	< 250 nM

Results, then the compound that gave them:

IC50 [1]	IC50 [2]	EC50 [3]	SMILES
< 250 nM	1000 to 10000 nM	< 250 nM	CC1C(=O)NN=C2COc3cc(-c4ccccc4OC(F)(F)F)c(NC4CNC4)cc3N21 (racemic) [Example 27]
< 250 nM	1000 to 10000 nM	< 250 nM	CC1C(=O)NN=C2COc3cc(-c4ccc(Cl)cc4)c(NC4CNC4)cc3N21 (racemic) [Example 45]
< 250 nM	250 to 1000 nM	< 250 nM	C[C@@H]1C(=O)NN=C2COc3cc(-c4ccccc4F)c(N(C)C4(C)CN(CC(C)(C)O)C4)cc3N21 [Example 190]
< 250 nM	1000 to 10000 nM	< 250 nM	CC1C(=O)NN=C2COc3cc(F)c(OC4(C)CNC4)cc3N21 (stereo not drawn) [Example 80, 7-Fluoro-4-methyl-6-(3-methyl-azetidin-3-yloxy)-2,10-dihydro-9-oxa-1,2,4a-triaza-phenanthren-3-one trifluoroacetic acid]
< 250 nM	250 to 1000 nM	< 250 nM	COCCN1CC(C)(N(C)c2cc3c(cc2-c2ccccc2F)OCC2=NNC(=O)[C@@H](C)N23)C1 [Example 192]
< 250 nM	1000 to 10000 nM	< 250 nM	C[C@@H]1C(=O)NN=C2COc3cc(F)c(OC4CNC4)cc3N21 [Example 124, (R)-9-(Azetidin-3-yloxy)-8-fluoro-1-methyl-3,5-dihydrobenzo[5,6][1,4]oxazino[3,4-c][1,2,4]triazin-2(1H)-one trifluoroacetic acid]
< 250 nM	1000 to 10000 nM	< 250 nM	C[C@@H]1C(=O)NN=C2COc3cc(-c4ccccc4Cl)c(C4CCNCC4)cc3N21 [Example 210]
< 250 nM	1000 to 10000 nM	250 to 1000 nM	C[C@@H]1C(=O)NN=C2COc3cc(-c4ccccc4F)c(N4CCNCC4)cc3N21 [Example 222, (R)-7-(2-Fluoro-phenyl)-4-methyl-6-piperazin-1-yl-2,10-dihydro-9-oxa-1,2,4a-triaza-phenanthren-3-one]
< 250 nM	1000 to 10000 nM	250 to 1000 nM	CC(=O)N1CC(C)(N(C)c2cc3c(cc2-c2ccccc2F)OCC2=NNC(=O)[C@@H](C)N23)C1 [Example 183, (R)-6-[(1-Acetyl-3-methyl-azetidin-3-yl)-methyl-amino]-7-(2-fluoro-phenyl)-4-methyl-2,10-dihydro-9-oxa-1,2,4a-triaza-phenanthren-3-one]
< 250 nM	1000 to 10000 nM	< 250 nM	Cc1ccccc1-c1cc2c(cc1NC1CNC1)N1C(=NNC(=O)[C@H]1C)CO2 [Example 5]
< 250 nM	1000 to 10000 nM	250 to 1000 nM	C[C@@H]1C(=O)NN=C2COc3cc(-c4ccccc4F)c(N(C)C4(C)CN(C(=O)CN(C)C)C4)cc3N21 [Example 187]
< 250 nM	250 to 1000 nM	< 250 nM	C[C@@H]1C(=O)NN=C2COc3cc(-c4ccccc4F)c(N(C)C4(C)CN(C(=O)CCN(C)C)C4)cc3N21 [Example 185]
< 250 nM	1000 to 10000 nM	< 250 nM	C[C@@H]1C(=O)NN=C2COc3cc(-c4ccc(F)cc4F)c(NC4CNC4)cc3N21 [Example 4]
< 250 nM	250 to 1000 nM	< 250 nM	C[C@@H]1C(=O)NN=C2COc3cc(-c4ccccc4F)c(N(C)[C@@]4(C)CCN(C)C4)cc3N21 (single isomer, unassigned) [Example 198-3]
< 250 nM	1000 to 10000 nM	250 to 1000 nM	C[C@@H]1C(=O)NN=C2COc3cc(-c4c(N5CCNCC5)ccc(Cl)c4Cl)ccc3N21 [Example 132]
< 250 nM	1000 to 10000 nM	1000 to 10000 nM	C[C@H]1C(=O)NN=C2COc3cc(-c4ccccc4F)c(N(C)[C@@]4(C)CCN(C)C4)cc3N21 (single isomer, unassigned) [Example 198-1]
< 250 nM	1000 to 10000 nM	250 to 1000 nM	C[C@@H]1C(=O)NN=C2COc3cc(-c4ccccc4F)c(N(C)C4(C)CN(C(=O)CO)C4)cc3N21 [Example 184]
< 250 nM	1000 to 10000 nM	< 250 nM	C[C@@H]1C(=O)NN=C2COc3cc(F)c(NC4CNC4)cc3N21 (single isomer, unassigned) [Example 56-2, trifluoroacetic acid]
< 250 nM	1000 to 10000 nM	< 250 nM	Cc1ccc(F)cc1-c1cc2c(cc1NC1CNC1)N1C(=NNC(=O)C1C)CO2 (racemic) [Example 15]
< 250 nM	250 to 1000 nM	< 250 nM	C[C@@H]1C(=O)NN=C2COc3cc(-c4ccccc4F)c(N(C)C4(C)CN(CCO)C4)cc3N21 [Example 191]
